Publication PMC11864979, “First-in-class ultralong-target-residence-time p38α inhibitors as a mitosis-targeted therapy for colorectal cancer” (Nature Cancer, 2025)
Where two headings read alike, the source gives them in different places.

Columns and labels:
Experiment in all cases: selectivity profiling in a panel of 340 wild-type kinases (Reaction Biology Europe)
Type in all cases: binding
340 wild-type kinases [1] = target: T1, 340 wild-type kinases (Homo sapiens, UniProt P42679)
T1 construct: purchased Reaction Biology Europe
T1 sequence (P42679 1-507): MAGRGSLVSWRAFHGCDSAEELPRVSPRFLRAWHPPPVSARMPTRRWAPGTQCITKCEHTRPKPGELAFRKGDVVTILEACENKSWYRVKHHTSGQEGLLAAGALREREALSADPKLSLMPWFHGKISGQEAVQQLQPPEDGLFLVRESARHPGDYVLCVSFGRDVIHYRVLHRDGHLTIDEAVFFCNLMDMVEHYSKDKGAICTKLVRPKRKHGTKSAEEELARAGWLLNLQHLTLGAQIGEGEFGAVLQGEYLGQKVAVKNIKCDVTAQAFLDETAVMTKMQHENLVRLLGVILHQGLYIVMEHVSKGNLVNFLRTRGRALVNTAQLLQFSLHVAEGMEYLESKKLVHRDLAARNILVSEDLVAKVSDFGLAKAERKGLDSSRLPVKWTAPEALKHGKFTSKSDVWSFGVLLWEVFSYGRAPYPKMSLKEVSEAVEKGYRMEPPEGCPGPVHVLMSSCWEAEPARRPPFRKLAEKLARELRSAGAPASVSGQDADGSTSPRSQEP

340 wild-type kinases [2] = target: T2, 340 wild-type kinases (Homo sapiens, UniProt P19784)
T2 construct: purchased Reaction Biology Europe
T2 sequence (P19784 whole entry): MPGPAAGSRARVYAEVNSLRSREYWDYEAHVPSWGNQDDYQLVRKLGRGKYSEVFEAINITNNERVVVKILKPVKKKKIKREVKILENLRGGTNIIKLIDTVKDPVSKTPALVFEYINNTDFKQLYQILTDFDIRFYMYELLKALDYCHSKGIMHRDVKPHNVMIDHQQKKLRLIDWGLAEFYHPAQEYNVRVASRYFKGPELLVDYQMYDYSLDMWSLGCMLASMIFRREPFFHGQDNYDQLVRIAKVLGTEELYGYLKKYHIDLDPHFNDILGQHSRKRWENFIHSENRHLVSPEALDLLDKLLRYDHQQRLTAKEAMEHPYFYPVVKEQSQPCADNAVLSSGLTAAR

340 wild-type kinases [3] = target: T3, 340 wild-type kinases (Homo sapiens, UniProt P36507)
T3 construct: purchased Reaction Biology Europe
T3 sequence (P36507 whole entry): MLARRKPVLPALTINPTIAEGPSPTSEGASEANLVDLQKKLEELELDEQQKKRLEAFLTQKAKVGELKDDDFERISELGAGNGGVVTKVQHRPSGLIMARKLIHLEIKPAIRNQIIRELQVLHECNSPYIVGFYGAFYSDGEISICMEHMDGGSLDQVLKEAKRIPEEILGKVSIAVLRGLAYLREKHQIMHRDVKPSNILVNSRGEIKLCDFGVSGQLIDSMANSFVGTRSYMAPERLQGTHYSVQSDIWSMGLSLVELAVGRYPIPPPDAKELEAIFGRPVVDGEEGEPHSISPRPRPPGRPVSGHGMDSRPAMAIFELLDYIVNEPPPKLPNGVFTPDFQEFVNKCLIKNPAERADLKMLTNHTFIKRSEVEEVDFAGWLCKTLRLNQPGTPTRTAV

340 wild-type kinases [4] = target: T4, 340 wild-type kinases (Homo sapiens, UniProt Q8TDC3)
T4 construct: purchased Reaction Biology Europe
T4 sequence (Q8TDC3 1-778): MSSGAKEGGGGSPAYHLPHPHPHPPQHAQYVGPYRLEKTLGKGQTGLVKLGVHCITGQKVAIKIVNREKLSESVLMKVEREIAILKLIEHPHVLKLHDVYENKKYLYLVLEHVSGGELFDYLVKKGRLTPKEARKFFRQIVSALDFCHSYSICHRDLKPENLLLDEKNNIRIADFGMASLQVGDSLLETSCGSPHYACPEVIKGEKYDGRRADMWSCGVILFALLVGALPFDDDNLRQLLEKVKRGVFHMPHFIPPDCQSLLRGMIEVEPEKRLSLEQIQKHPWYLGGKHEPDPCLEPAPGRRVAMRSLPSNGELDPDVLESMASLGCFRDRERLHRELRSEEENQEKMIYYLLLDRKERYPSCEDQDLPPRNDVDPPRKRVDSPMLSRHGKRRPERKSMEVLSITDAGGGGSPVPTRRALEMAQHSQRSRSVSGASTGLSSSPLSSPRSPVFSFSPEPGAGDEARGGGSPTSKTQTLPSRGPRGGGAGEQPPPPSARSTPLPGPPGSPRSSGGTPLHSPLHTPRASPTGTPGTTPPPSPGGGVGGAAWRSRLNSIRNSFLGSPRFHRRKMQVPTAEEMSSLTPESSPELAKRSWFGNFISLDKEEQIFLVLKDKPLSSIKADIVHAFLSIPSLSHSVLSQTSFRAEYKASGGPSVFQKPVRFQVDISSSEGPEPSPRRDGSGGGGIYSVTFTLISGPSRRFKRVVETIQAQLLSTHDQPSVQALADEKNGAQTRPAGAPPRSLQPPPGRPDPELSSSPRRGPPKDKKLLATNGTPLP

340 wild-type kinases [5] = target: T5, 340 wild-type kinases (Homo sapiens, UniProt Q99558)
T5 construct: purchased Reaction Biology Europe
T5 sequence (Q99558 whole entry): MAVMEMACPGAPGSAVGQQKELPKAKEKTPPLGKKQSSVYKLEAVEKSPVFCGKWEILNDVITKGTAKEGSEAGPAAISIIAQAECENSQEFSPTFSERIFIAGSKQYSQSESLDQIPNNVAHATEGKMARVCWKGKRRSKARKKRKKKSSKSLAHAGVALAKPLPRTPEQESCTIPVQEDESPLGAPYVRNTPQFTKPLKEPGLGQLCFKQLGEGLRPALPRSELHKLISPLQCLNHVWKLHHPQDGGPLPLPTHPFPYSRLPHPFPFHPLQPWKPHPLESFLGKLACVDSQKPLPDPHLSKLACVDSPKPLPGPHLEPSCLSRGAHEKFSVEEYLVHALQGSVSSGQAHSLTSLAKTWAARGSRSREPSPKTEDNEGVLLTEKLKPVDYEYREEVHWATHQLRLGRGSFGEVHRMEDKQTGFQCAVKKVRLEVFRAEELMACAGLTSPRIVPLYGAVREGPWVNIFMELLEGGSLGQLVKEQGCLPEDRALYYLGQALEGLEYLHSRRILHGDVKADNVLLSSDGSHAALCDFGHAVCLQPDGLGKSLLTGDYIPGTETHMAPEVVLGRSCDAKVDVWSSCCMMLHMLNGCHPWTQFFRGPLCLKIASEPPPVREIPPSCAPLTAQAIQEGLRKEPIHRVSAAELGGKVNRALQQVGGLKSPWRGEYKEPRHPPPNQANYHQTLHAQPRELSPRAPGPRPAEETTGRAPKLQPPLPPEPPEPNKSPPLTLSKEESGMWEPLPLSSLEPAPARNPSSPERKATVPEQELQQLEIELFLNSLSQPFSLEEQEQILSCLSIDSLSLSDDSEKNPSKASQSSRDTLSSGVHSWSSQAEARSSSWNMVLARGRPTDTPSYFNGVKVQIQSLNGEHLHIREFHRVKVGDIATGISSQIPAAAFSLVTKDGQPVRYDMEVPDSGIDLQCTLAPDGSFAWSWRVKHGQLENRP

340 wild-type kinases [6] = target: T6, 340 wild-type kinases (Homo sapiens, UniProt Q8N568)
T6 construct: purchased Reaction Biology Europe
T6 sequence (Q8N568 whole entry): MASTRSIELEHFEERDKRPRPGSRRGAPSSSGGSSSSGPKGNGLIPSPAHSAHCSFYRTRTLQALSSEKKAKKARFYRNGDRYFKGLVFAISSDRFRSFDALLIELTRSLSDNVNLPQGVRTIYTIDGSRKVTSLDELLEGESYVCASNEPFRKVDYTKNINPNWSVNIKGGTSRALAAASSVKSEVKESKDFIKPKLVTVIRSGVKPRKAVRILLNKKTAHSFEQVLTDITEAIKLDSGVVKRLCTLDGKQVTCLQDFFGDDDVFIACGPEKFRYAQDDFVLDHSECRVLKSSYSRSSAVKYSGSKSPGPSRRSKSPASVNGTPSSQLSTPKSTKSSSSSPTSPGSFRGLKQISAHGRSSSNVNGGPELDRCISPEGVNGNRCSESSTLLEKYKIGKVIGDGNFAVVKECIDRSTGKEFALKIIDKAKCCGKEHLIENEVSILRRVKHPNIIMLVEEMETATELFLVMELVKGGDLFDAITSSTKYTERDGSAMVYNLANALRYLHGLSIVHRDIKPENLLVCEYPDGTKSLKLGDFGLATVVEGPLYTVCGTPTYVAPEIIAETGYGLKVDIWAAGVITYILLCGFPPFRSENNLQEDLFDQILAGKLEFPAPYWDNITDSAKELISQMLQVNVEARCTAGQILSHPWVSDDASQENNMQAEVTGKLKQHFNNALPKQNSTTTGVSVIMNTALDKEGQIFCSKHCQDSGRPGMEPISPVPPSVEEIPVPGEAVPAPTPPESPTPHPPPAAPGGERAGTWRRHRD

340 wild-type kinases [7] = target: T7, 340 wild-type kinases (Homo sapiens, UniProt Q16832)
T7 construct: purchased Reaction Biology Europe
T7 sequence (Q16832 22-855): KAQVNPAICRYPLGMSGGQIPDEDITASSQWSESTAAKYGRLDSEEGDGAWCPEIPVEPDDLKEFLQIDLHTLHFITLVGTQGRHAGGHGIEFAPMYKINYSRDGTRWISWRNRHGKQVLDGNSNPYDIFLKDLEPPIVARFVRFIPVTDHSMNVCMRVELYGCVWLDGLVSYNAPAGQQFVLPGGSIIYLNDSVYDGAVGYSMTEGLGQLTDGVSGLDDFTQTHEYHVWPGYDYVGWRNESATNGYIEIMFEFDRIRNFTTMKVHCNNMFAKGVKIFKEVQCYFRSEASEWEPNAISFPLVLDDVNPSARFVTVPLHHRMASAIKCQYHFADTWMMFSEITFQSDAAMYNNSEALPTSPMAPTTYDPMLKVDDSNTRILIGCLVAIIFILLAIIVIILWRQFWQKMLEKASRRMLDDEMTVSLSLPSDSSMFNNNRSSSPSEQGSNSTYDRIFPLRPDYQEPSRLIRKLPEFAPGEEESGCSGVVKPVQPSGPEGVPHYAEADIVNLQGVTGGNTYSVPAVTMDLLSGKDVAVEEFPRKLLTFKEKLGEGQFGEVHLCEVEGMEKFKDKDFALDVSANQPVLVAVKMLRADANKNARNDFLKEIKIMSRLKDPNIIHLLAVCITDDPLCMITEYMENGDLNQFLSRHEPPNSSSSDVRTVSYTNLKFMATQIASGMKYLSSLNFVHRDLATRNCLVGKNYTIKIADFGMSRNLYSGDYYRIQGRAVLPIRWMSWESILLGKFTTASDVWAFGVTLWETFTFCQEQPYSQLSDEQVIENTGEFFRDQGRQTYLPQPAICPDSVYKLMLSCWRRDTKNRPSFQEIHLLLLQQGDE

340 wild-type kinases [8] = target: T8, 340 wild-type kinases (Homo sapiens, UniProt Q9UPE1)
T8 construct: purchased Reaction Biology Europe
T8 sequence (Q9UPE1 whole entry): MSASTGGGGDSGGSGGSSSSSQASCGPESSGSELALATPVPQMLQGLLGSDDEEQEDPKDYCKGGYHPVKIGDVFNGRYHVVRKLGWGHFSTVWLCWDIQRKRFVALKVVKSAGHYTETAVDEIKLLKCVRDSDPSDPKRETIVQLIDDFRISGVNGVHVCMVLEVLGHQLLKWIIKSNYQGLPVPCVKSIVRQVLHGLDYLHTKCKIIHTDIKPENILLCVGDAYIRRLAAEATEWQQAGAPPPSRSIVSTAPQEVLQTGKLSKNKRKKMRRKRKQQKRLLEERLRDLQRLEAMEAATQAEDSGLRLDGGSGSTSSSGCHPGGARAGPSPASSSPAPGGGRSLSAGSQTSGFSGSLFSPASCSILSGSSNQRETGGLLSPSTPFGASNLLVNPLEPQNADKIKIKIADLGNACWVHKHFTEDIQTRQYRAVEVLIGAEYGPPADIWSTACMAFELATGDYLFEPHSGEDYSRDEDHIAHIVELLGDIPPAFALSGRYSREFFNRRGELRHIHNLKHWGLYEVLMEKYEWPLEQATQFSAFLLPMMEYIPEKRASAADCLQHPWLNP

## CNC(=O)c1ccc2c(c1)C(=O)c1ccc(Nc3ccc(F)c(NC(=O)C4CC4)c3)cc1CC2 [Compound 2015]
340 wild-type kinases [1]; 0.2 µM 2015, read-out: MATK residual activity
  remaining activity at 0.2 µM: 112%
340 wild-type kinases [1]; 1 µM 2015, read-out: MATK residual activity
  remaining activity at 1 µM: 100%
340 wild-type kinases [1]; MATK, 0.2 µM, read-out: residual activity
  remaining activity at 0.2 µM: 112%
340 wild-type kinases [1]; MATK, 1 µM, read-out: residual activity
  remaining activity at 1 µM: 100%
340 wild-type kinases [2]; 0.2 µM 2015, read-out: CK2alpha2 residual activity
  remaining activity at 0.2 µM: 102%
340 wild-type kinases [2]; 1 µM 2015, read-out: CK2alpha2 residual activity
  remaining activity at 1 µM: 97.2%
340 wild-type kinases [2]; CK2alpha2, 0.2 µM, read-out: residual activity
  remaining activity at 0.2 µM: 102%
340 wild-type kinases [2]; CK2alpha2, 1 µM, read-out: residual activity
  remaining activity at 1 µM: 97.2%
340 wild-type kinases [3]; 0.2 µM 2015, read-out: MEK2 residual activity
  remaining activity at 0.2 µM: 103%
340 wild-type kinases [3]; 1 µM 2015, read-out: MEK2 residual activity
  remaining activity at 1 µM: 69.7%
340 wild-type kinases [3]; MEK2, 0.2 µM, read-out: residual activity
  remaining activity at 0.2 µM: 103%
340 wild-type kinases [3]; MEK2, 1 µM, read-out: residual activity
  remaining activity at 1 µM: 69.7%
340 wild-type kinases [4]; 0.2 µM 2015, read-out: BRSK1 residual activity
  remaining activity at 0.2 µM: 99.5%
340 wild-type kinases [4]; 1 µM 2015, read-out: BRSK1 residual activity
  remaining activity at 1 µM: 90.5%
340 wild-type kinases [4]; BRSK1, 0.2 µM, read-out: residual activity
  remaining activity at 0.2 µM: 99.5%
340 wild-type kinases [4]; BRSK1, 1 µM, read-out: residual activity
  remaining activity at 1 µM: 90.5%
340 wild-type kinases [5]; 0.2 µM 2015, read-out: NIK residual activity
  remaining activity at 0.2 µM: 113%
340 wild-type kinases [5]; 1 µM 2015, read-out: NIK residual activity
  remaining activity at 1 µM: 90.5%
340 wild-type kinases [5]; NIK, 0.2 µM, read-out: residual activity
  remaining activity at 0.2 µM: 113%
340 wild-type kinases [5]; NIK, 1 µM, read-out: residual activity
  remaining activity at 1 µM: 90.5%
340 wild-type kinases [6]; 0.2 µM 2015, read-out: DCAMKL2 residual activity
  remaining activity at 0.2 µM: 102%
340 wild-type kinases [6]; 1 µM 2015, read-out: DCAMKL2 residual activity
  remaining activity at 1 µM: 86.3%
340 wild-type kinases [6]; DCAMKL2, 0.2 µM, read-out: residual activity
  remaining activity at 0.2 µM: 102%
340 wild-type kinases [6]; DCAMKL2, 1 µM, read-out: residual activity
  remaining activity at 1 µM: 86.3%
340 wild-type kinases [7]; 0.2 µM 2015, read-out: DDR2 residual activity
  remaining activity at 0.2 µM: 106%
340 wild-type kinases [7]; 1 µM 2015, read-out: DDR2 residual activity
  remaining activity at 1 µM: 98.8%
340 wild-type kinases [7]; DDR2, 0.2 µM, read-out: residual activity
  remaining activity at 0.2 µM: 106%
340 wild-type kinases [7]; DDR2, 1 µM, read-out: residual activity
  remaining activity at 1 µM: 98.8%
340 wild-type kinases [8]; 0.2 µM 2015, read-out: STK23 residual activity
  remaining activity at 0.2 µM: 90.7%
340 wild-type kinases [8]; 1 µM 2015, read-out: STK23 residual activity
  remaining activity at 1 µM: 94.1%
340 wild-type kinases [8]; STK23, 0.2 µM, read-out: residual activity
  remaining activity at 0.2 µM: 90.7%
